From ChEMBL document CHEMBL2434843, “Synthesis and evaluation of α-ketotriazoles and α,β-diketotriazoles as inhibitors of Mycobacterium tuberculosis” (Eur J Med Chem, 2013)
Values after ≈ are worked out from the molar mass of the structure shown.

Columns and labels:
Type in all cases: functional
[1] = tested on: Mycobacterium tuberculosis; experiment: Antitubercular activity against multidrug-resistant Mycobacterium tuberculosis IC1 assessed as growth inhibition by BACTEC MGIT 960 method
[2] = tested on: Mycobacterium tuberculosis; experiment: Antitubercular activity against multidrug-resistant Mycobacterium tuberculosis IC3 assessed as growth inhibition by BACTEC MGIT 960 method
[3] = tested on: Mycobacterium tuberculosis; experiment: Antitubercular activity against multidrug-resistant Mycobacterium tuberculosis IC2 assessed as growth inhibition by BACTEC MGIT 960 method

SMILES	MIC [1]	MIC [2]	MIC [3]
COc1ccc(C(=O)C(=O)c2cn(Cc3ccccc3)nn2)cc1	6.9 µM (≈ 2.22 µg/mL)	6.9 µM (≈ 2.22 µg/mL)	6.9 µM (≈ 2.22 µg/mL)
O=C(C(=O)c1ccc(Cl)cc1Cl)c1cn(Cc2ccccc2)nn1	7.6 µM (≈ 2.74 µg/mL)	7.6 µM (≈ 2.74 µg/mL)	7.6 µM (≈ 2.74 µg/mL)
